pIC50: −log10 of the molar value. Square brackets hold non-standard residues; d marks the D form. Peptide text beside a SMILES is read from it.

For one data set, the system named is SUP-T1. The experiment in a line: Inhibition of cell migration in human SUP-T1 cells assessed as inhibition of CXCL12 mediated cell migration incubated for 4 hrs in presence of chemoattractant, CXCL12 by Transwell based CellTiter-Glo-chemotaxis assay. It counts as functional.
Data set [1] in a line: Toxicity in Zebrafish embryo incubated for 24 hrs by microscopic analysis. To be noted: in vivo. Also on record: species or system Danio rerio.
The target in data set [2] is T1, C-X-C chemokine receptor type 4 (Homo sapiens, UniProt P61073). The experiment in a line: Antagonist activity at CXCR4 in human SUP-T1 cells assessed as inhibition of CXCL12-induced ERK phosphorylation preincubated with 15 mins followed by CXCL12 stimulation and measured after 12 mins by flow cytometry analysis. It counts as functional, cell-based. On the technique in general: Flow cytometry measures light scatter and fluorescence of single cells or particles in a stream.

Data set [3] deals with Human immunodeficiency virus 1. The data set can be described thus: Antiviral activity against HIV-1 NL4-3 infected in human TZM-bl cells assessed as inhibition of viral replication preincubated for 15 mins followed by viral infection and measured after 4320 mins by beta-gal screening assay. It is filed as functional, organism-based. Conditions: Human immunodeficiency virus 1, NL4-3, TZM.

Data set [4] has as its target T1, C-X-C chemokine receptor type 4. The data set can be described thus: Displacement of 12G5 mAb from CXCR4 in human SUP-T1 cells incubated for 2 hrs by flow cytometry analysis. It is filed as cell-based.
Data set [5] has the same target. The data set can be described thus: Antagonist activity at CXCR4 (unknown origin) expressed in human HEK293T cells co-expressing SmBiT-beta-arrestin2 preincubated with compound for 10 mins followed by CXCL12 stimulation and measured for 120 mins by beta-arrestin2 recruitment based NanoBiT assay. It is filed as functional, cell-based. (In general: Arrestin recruitment assays detect the binding of arrestin to an activated receptor.)

T1 sequence (P61073 whole entry): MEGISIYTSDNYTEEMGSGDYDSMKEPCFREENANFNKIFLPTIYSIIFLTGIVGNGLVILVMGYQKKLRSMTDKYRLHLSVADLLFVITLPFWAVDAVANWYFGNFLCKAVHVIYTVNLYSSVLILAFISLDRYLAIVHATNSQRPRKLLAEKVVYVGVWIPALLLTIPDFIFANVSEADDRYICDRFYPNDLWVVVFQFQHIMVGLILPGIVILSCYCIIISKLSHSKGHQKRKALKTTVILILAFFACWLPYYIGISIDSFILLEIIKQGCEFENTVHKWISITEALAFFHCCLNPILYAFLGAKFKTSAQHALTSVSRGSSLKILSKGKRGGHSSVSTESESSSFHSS

`CSCC[C@H](NC(=O)[C@H](N)CC(C)C)C(=O)N[C@@H](CCCNC(=N)N)C(=O)N[C@@H](Cc1c[nH]c2ccccc12)C(=O)N[C@@H](CO)C(=O)N[C@@H](CCCNC(=N)N)C(=O)N[C@@H](CCCCN)C(=O)N[C@@H](CCSC)C(=O)N1CCC[C@H]1C(=O)N[C@@H](CS)C(=O)N[C@H](C(=O)N[C@@H](CO)C(=O)O)C(C)C` (H-[dL]MRWSRKMPCVS-OH): the inhibition entry in the data set with SUP-T1 is “Dose-Dependent Effect”. Also, in data set [1], the Activity result was “Non-Toxic”.

On to `CC[C@H](C)[C@H](N)C(=O)N[C@H](CC(C)C)C(=O)N[C@@H](CCCNC(=N)N)C(=O)N[C@@H](Cc1c[nH]c2ccccc12)C(=O)N[C@@H](CO)C(=O)N[C@@H](CCCNC(=N)N)C(=O)N[C@@H](CCCCN)C(=O)N[C@@H](CC(C)C)C(=O)N1CCC[C@H]1C(=O)N[C@@H](CS)C(=O)N[C@H](C(=O)N[C@@H](CO)C(=O)O)C(C)C`, for which the pIC50 (commonly −log10 of the IC50, conventionally taken in molar units) in data set [2] was under 4.00; in data set [3], 6.36; in data set [4] it was 5.76.

`CC(C)C[C@H](NC(=O)[C@@H](NC(=O)[C@@H]1CCCN1C(=O)[C@@H](NC(=O)[C@H](CO)NC(=O)[C@@H](NC(=O)[C@H](CCC(N)=O)NC(=O)[C@@H]1CCCN1C(=O)[C@@H](NC(=O)[C@H](CCCCN)NC(=O)[C@H](CCCCN)NC(=O)[C@@H](NC(=O)[C@H](Cc1ccc(O)cc1)NC(=O)[C@H](CCCNC(=N)N)NC(=O)[C@@H](NC(=O)[C@@H](N)CC(C)C)C(C)C)[C@@H](C)O)C(C)C)C(C)C)[C@@H](C)O)[C@@H](C)O)C(=O)O` (H-LVRYTKKVPQVSTPTL-OH): the figures for the negative logarithm of the IC50 (pIC50) in data set [2], in data set [3] and in data set [4] were under 4.00, under 5.00 and 5.58, respectively.

For `c1cc(CN2CCCNCCNCCCNCC2)ccc1CN1CCCNCCNCCCNCC1`, the negative logarithm of the IC50 (pIC50) in data set [3] was 7.52. Also, the inhibition result with SUP-T1 was “Dose-Dependent Effect”.

Consider `CSCC[C@@H](NC(C)=O)C(=O)N[C@@H](CC(C)C)C(=O)N[C@@H](CCCNC(=N)N)C(=O)N[C@@H](Cc1c[nH]c2ccccc12)C(=O)N[C@@H](CO)C(=O)N[C@@H](CCCNC(=N)N)C(=O)N[C@@H](CCCCN)C(=O)N[C@@H](CC(C)C)C(=O)N1CCC[C@H]1C(=O)N[C@@H](CS)C(=O)N[C@H](C(=O)N[C@@H](CO)C(=O)O)C(C)C`, for which the negative-log IC50 (pIC50) in data set [3] is under 5.00.

Take `CSCC[C@H](NC(=O)[C@H](CCCCN)NC(=O)[C@H](CCCNC(=N)N)NC(=O)[C@H](CO)NC(=O)[C@H](Cc1c[nH]c2ccccc12)NC(=O)[C@H](CCCNC(=N)N)NC(=O)[C@H](CC(C)C)NC(=O)[C@H](CO)NC(C)=O)C(=O)N1CCC[C@H]1C(=O)N[C@@H](CS)C(=O)N[C@H](C(=O)N[C@@H](CO)C(=O)O)C(C)C`: the pIC50 in data set [2] was under 4.00; in data set [3], 5.39; in data set [4] it was 4.79.

For `CC(C)C[C@H](NC(=O)[C@@H](N)C(C)C)C(=O)N[C@@H](CCCNC(=N)N)C(=O)N[C@@H](Cc1c[nH]c2ccccc12)C(=O)N[C@@H](CO)C(=O)N[C@@H](CCCNC(=N)N)C(=O)N[C@@H](CCCCN)C(=O)N[C@@H](CC(C)C)C(=O)N1CCC[C@H]1C(=O)N[C@@H](CS)C(=O)N[C@H](C(=O)N[C@@H](CO)C(=O)O)C(C)C`, the pIC50 in data set [2] is 5.36; in data set [3] it was 6.67; in data set [4], 6.53.

As for `CSCC[C@H](NC(=O)[C@H](CCCCN)NC(=O)[C@H](CCCNC(=N)N)NC(=O)[C@H](CO)NC(=O)[C@H](Cc1c[nH]c2ccccc12)NC(=O)[C@H](CCCNC(=N)N)NC(=O)[C@@H](CC(C)C)NC(=O)[C@@H](N)CCSC)C(=O)N1CCC[C@H]1C(=O)N[C@@H](CS)C(=O)N[C@H](C(=O)N[C@@H](CO)C(=O)O)C(C)C`, in data set [4], the pIC50 is 6.08.

With `CSCC[C@H](NC(=O)[C@H](CCCCN)NC(=O)[C@H](CCCNC(=N)N)NC(=O)[C@H](CO)NC(=O)[C@H](Cc1c[nH]c2ccccc12)NC(=O)[C@H](CCCNC(=N)N)NC(=O)[C@H](CC(C)C)NC(=O)[C@@H](CO)NC(C)=O)C(=O)N1CCC[C@H]1C(=O)N[C@@H](CS)C(=O)N[C@H](C(=O)N[C@@H](CO)C(=O)O)C(C)C`, the negative logarithm of the IC50 (pIC50) in data set [2] is under 4.00; in data set [3], 6.11; in data set [4], 5.06.

For the compound `CSCC[C@H](NC(C)=O)C(=O)N[C@@H](CC(C)C)C(=O)N[C@@H](CCCNC(=N)N)C(=O)N[C@@H](Cc1c[nH]c2ccccc12)C(=O)N[C@@H](CO)C(=O)N[C@@H](CCCNC(=N)N)C(=O)N[C@@H](CCCCN)C(=O)N[C@@H](CC(C)C)C(=O)N1CCC[C@H]1C(=O)N[C@@H](CS)C(=O)N[C@H](C(=O)N[C@@H](CO)C(=O)O)C(C)C`, in data set [3], the negative-log IC50 (pIC50) is under 5.00.

With `CSCC[C@H](NC(=O)[C@@H](N)CCSC)C(=O)N[C@@H](CCCNC(=N)N)C(=O)N[C@@H](Cc1c[nH]c2ccccc12)C(=O)N[C@@H](CO)C(=O)N[C@@H](CCCNC(=N)N)C(=O)N[C@@H](CCCCN)C(=O)N[C@@H](CCSC)C(=O)N1CCC[C@H]1C(=O)N[C@@H](CS)C(=O)N[C@H](C(=O)N[C@@H](CO)C(=O)O)C(C)C` (H-MMRWSRKMPCVS-OH), the negative-log IC50 (pIC50) is 5.14 in data set [2], 6.89 in data set [3] and 6.98 in data set [4].

On to `CSCC[C@H](NC(=O)CN)C(=O)N[C@@H](CCCNC(=N)N)C(=O)N[C@@H](Cc1c[nH]c2ccccc12)C(=O)N[C@@H](CO)C(=O)N[C@@H](CCCNC(=N)N)C(=O)N[C@@H](CCCCN)C(=O)N[C@@H](CCSC)C(=O)N1CCC[C@H]1C(=O)N[C@@H](CS)C(=O)N[C@H](C(=O)N[C@@H](CO)C(=O)O)C(C)C` (H-GMRWSRKMPCVS-OH), for which the negative-log IC50 (pIC50) in data set [2] is under 4.00; in data set [3], 5.18; in data set [4] it was 5.06.

`CC[C@H](C)[C@H](NC(C)=O)C(=O)N[C@@H](CC(C)C)C(=O)N[C@@H](CCCNC(=N)N)C(=O)N[C@@H](Cc1c[nH]c2ccccc12)C(=O)N[C@@H](CO)C(=O)N[C@@H](CCCNC(=N)N)C(=O)N[C@@H](CCCCN)C(=O)N[C@@H](CC(C)C)C(=O)N1CCC[C@H]1C(=O)N[C@@H](CS)C(=O)N[C@H](C(=O)N[C@@H](CO)C(=O)O)C(C)C`: the pIC50 in data set [2] was 4.38; in data set [3], 5.78; in data set [4] it was 5.58.

With `CC(C)C[C@H](NC(=O)[C@H](N)C(C)C)C(=O)N[C@@H](CCCNC(=N)N)C(=O)N[C@@H](Cc1c[nH]c2ccccc12)C(=O)N[C@@H](CO)C(=O)N[C@@H](CCCNC(=N)N)C(=O)N[C@@H](CCCCN)C(=O)N[C@@H](CC(C)C)C(=O)N1CCC[C@H]1C(=O)N[C@@H](CS)C(=O)N[C@H](C(=O)N[C@@H](CO)C(=O)O)C(C)C`, the negative-log IC50 (pIC50) in data set [3] is 6.16; in data set [4], 6.04.

For the compound `CSCC[C@H](NC(=O)[C@H](CCCCN)NC(=O)[C@H](CCCNC(=N)N)NC(=O)[C@H](CO)NC(=O)[C@H](Cc1c[nH]c2ccccc12)NC(=O)[C@H](CCCNC(=N)N)NC(=O)[C@H](CC(C)C)NC(=O)[C@H](N)Cc1ccccc1)C(=O)N1CCC[C@H]1C(=O)N[C@@H](CS)C(=O)N[C@H](C(=O)N[C@@H](CO)C(=O)O)C(C)C`, the pIC50 is under 4.00 in data set [2], 6.09 in data set [3] and 5.84 in data set [4].

Regarding `CC[C@@H](C)[C@@H](N)C(=O)N[C@@H](CC(C)C)C(=O)N[C@@H](CCCNC(=N)N)C(=O)N[C@@H](Cc1c[nH]c2ccccc12)C(=O)N[C@@H](CO)C(=O)N[C@@H](CCCNC(=N)N)C(=O)N[C@@H](CCCCN)C(=O)N[C@@H](CC(C)C)C(=O)N1CCC[C@H]1C(N)=O` (H-[dI]LRWSRKLP-NH2), the negative-log IC50 (pIC50) in data set [2] is 5.34; in data set [3], 6.26; in data set [4], 6.34; in data set [5], 6.93. For the same compound, the inhibition entry with SUP-T1 was “Dose-Dependent Effect”. Also, the Activity entry in data set [1] is recorded as “Non-Toxic”.

Consider `CC[C@@H](C)[C@@H](NC(C)=O)C(=O)N[C@@H](CC(C)C)C(=O)N[C@@H](CCCNC(=N)N)C(=O)N[C@@H](Cc1c[nH]c2ccccc12)C(=O)N[C@@H](CO)C(=O)N[C@@H](CCCNC(=N)N)C(=O)N[C@@H](CCCCN)C(=O)N[C@@H](CC(C)C)C(=O)N1CCC[C@H]1C(=O)N[C@@H](CS)C(=O)N[C@H](C(=O)N[C@@H](CO)C(=O)O)C(C)C`, for which the figures for the pIC50 in data set [2], in data set [3] and in data set [4] were 4.77, under 5.00 and 5.11, respectively.

In the case of `CSCC[C@H](NC(=O)[C@H](CCCCN)NC(=O)[C@H](CCCNC(=N)N)NC(=O)[C@H](CO)NC(=O)[C@H](Cc1c[nH]c2ccccc12)NC(=O)[C@H](CCCNC(=N)N)NC(=O)[C@H](CC(C)C)NC(=O)[C@H](N)CC(C)C)C(=O)N1CCC[C@H]1C(=O)N[C@@H](CS)C(=O)N[C@H](C(=O)N[C@@H](CO)C(=O)O)C(C)C` (H-[dL]LRWSRKMPCVS-OH), the pIC50 was 5.44 in data set [2], 6.82 in data set [3], 6.51 in data set [4] and 6.59 in data set [5]. In the data set with SUP-T1, the inhibition result was “Dose-Dependent Effect”. In addition, the Activity entry in data set [1] is recorded as “Non-Toxic”.

Take `CSCC[C@H](NC(=O)[C@H](N)Cc1ccccc1)C(=O)N[C@@H](CCCNC(=N)N)C(=O)N[C@@H](Cc1c[nH]c2ccccc12)C(=O)N[C@@H](CO)C(=O)N[C@@H](CCCNC(=N)N)C(=O)N[C@@H](CCCCN)C(=O)N[C@@H](CCSC)C(=O)N1CCC[C@H]1C(=O)N[C@@H](CS)C(=O)N[C@H](C(=O)N[C@@H](CO)C(=O)O)C(C)C`: the figures for the negative-log IC50 (pIC50) in data set [2], in data set [3] and in data set [4] were under 4.00, 5.77 and 5.83, respectively. For the same compound, the inhibition entry in the data set on SUP-T1 was “Dose-Dependent Effect”.

In the case of `CC[C@H](C)[C@H](N)C(=O)N[C@H](CC(C)C)C(=O)N[C@@H](CCCNC(=N)N)C(=O)N[C@@H](Cc1c[nH]c2ccccc12)C(=O)N[C@@H](CO)C(=O)N[C@@H](CCCNC(=N)N)C(=O)N[C@@H](CCCCN)C(=O)N[C@@H](CCSC)C(=O)N1CCC[C@H]1C(=O)N[C@@H](CS)C(=O)N[C@H](C(=O)N[C@@H](CO)C(=O)O)C(C)C`, the negative logarithm of the IC50 (pIC50) is under 4.00 in data set [2], 6.03 in data set [3] and 6.00 in data set [4].
